Tests used:
AMARE [1] = test: Herbicidal post-emergence action - Part II; assay type: in vivo, Amaranthus retroflexus
From the text: (§1) Seeds of mono- and dicotyledonous weed plants and crop plants were sown, in plastic or organic planting pots, in sandy loam, covered with soil and grown in a greenhouse under controlled growth conditions. 2 to 3 weeks after sowing, the test plants were sprayed in the single-leaf stage. The compounds according to the invention, formulated in form of wettable powders (WP) or as emulsifiable concentrates (EC), were sprayed onto the green plant parts as aqueous suspension or emulsion, with the addition of 0.5% of an additive, at an application rate of 600 1 of water/ha (converted). The test plants were placed in the greenhouse for ca. 3 weeks under optimum growth conditions, and then the effect of the preparations was assessed visually in comparison with untreated controls (herbicidal effect in percent (%): 100% effect = plants have died off, 0% effect = as control plants). Tables E1 to E10 below show the effects of selected compounds of the general formula (I) according to table 1 on various harmful plants and an application rate corresponding to 320 g/ha or below obtained by the experimental procedure mentioned above. Table E1a: post-emergence activity at 5g/ha against ABUTH in %

SETVI = test: Herbicidal post-emergence action - Part II; assay type: in vivo, Setaria viridis
From the text: as §1

VIOTR = test: Herbicidal post-emergence action - Part II; assay type: in vivo, Viola tricolor
From the text: as §1

ZEAMX = test: Post-emergence effects on crop plants; assay type: in vivo, Zea mays; details: 5 g/ha; Table F1a; crop plant
From the text: as §1, with “F1” for “E1”, “F5” for “E10”, “crop” for “harmful”, “[…]:” for “E1a:”, “ZEAMX” for “ABUTH”

MATIN [2] = test: Herbicidal post-emergence action - Part II; assay type: in vivo, Matricaria inodora; details: 20 g/ha; Table E4b
From the text: as §1

ABUTH [3] = test: Herbicidal post-emergence action - Part II; assay type: in vivo, Abutilon theophrasti
From the text: as §1

TRZAS = test: Post-emergence effects on crop plants; assay type: in vivo, Triticum aestivum; details: crop plant
From the text: as §1, with “F1” for “E1”, “F5” for “E10”, “crop” for “harmful”, “[…]:” for “E1a:”, “ZEAMX” for “ABUTH”

PHBPU = test: Herbicidal post-emergence action - Part II; assay type: in vivo, Pharbitis purpurea
From the text: as §1

POLCO = test: Herbicidal post-emergence action - Part II; assay type: in vivo, Polygonum convolvulus; details: 20 g/ha; Table E6
From the text: as §1

VERPE [4] = test: Herbicidal post-emergence action - Part II; assay type: in vivo, Veronica persica
From the text: as §1

GLXMA = test: Post-emergence effects on crop plants; assay type: in vivo, Glycine max; details: crop plant
From the text: as §1, with “F1” for “E1”, “F5” for “E10”, “crop” for “harmful”, “[…]:” for “E1a:”, “ZEAMX” for “ABUTH”

KCHSC = test: Herbicidal post-emergence action - Part I; assay type: in vivo, Kochia scoparia; details: 1280 g/ha, one-leaf stage, rated visually after about 3 weeks vs untreated controls
Description: (§2) Seeds of mono- and dicotyledonous weed plants were placed in plastic pots in sandy loam soil (doubly sown with in each case one species of mono- or dicotyledonous weed plants per pot), covered with soil and cultivated in a greenhouse under controlled growth conditions. 2 to 3 weeks after sowing, the test plants were treated at the one-leaf stage. The compounds of the invention, formulated in the form of wettable powders (WP) or as emulsion concentrates (EC), were applied onto the green parts of the plants as aqueous suspension or emulsion with addition of 0.5% additive at a water application rate of 600 liters per hectare (converted). After the test plants had been kept in the greenhouse under optimum growth conditions for about 3 weeks, the activity of the preparations was rated visually in comparison to untreated controls. For example, 100% activity = the plants have died, 0% activity = like control plants. Tables B1 to B12, below, show the effects of selected compounds of the general formula (I) according to table 1 on various harmful plants and an application rate corresponding to 1280 g/ha or below obtained by the experimental procedure mentioned above. Table B1a: post-emergence activity at 1280g/ha against ABUTH in %

VERPE [5] = test: Herbicidal post-emergence action - Part I; assay type: in vivo, Veronica persica; details: 1280 g/ha, one-leaf stage, rated visually after about 3 weeks vs untreated controls
Description: as §2

AMARE [6] = test: Herbicidal pre-emergence action - Part I; assay type: in vivo, Amaranthus retroflexus; details: 1280 g/ha, visual grading after ca. 3 weeks vs untreated controls
From the text: (§3) Seeds of mono- and dicotyledonous weed plants were sown in plastic pots (double sowings with one species of mono- and one species of dicotyledonous weed plants per pot), in sandy loam, and covered with soil. The compounds according to the invention, formulated in the form of wettable powders (WP) or as emulsifiable concentrates (EC), were applied to the surface of the covering soil as aqueous suspension or emulsion, with the addition of 0.5% of an additive, at an application rate of 600 1 of water per hectare (converted). Following treatment, the pots were placed in a greenhouse and kept under optimum growth conditions for the test plants. The visual grading of the damage to the test plants was carried out after ca. 3 weeks in comparison to untreated controls (herbicidaleffectinpercent(%):100%effect=plantshavediedoff,0%effect=ascontrolplants). [formula]
(§4) Tables A1 to A12, below, show the effects of selected compounds of the general formula (I) according to table 1 on various harmful plants and an application rate corresponding to 1280 g/ha or below obtained by the experimental procedure mentioned above. Table A1: pre-emergence activity at 1280g/ha against ABUTH in %

AMARE [7] = test: Herbicidal post-emergence action - Part I; assay type: in vivo, Amaranthus retroflexus; details: one-leaf stage, rated visually after about 3 weeks vs untreated controls
Description: as §2

ABUTH [8] = test: Herbicidal post-emergence action - Part I; assay type: in vivo, Abutilon theophrasti; details: 320 g/ha, one-leaf stage, rated visually after about 3 weeks vs untreated controls
Description: as §2

ECHCG = test: Herbicidal pre-emergence action - Part I; assay type: in vivo, Echinochloa crus-galli; details: 1280 g/ha, visual grading after ca. 3 weeks vs untreated controls
From the text: as §3, §4

STEME [9] = test: Herbicidal post-emergence action - Part I; assay type: in vivo, Stellaria media; details: one-leaf stage, rated visually after about 3 weeks vs untreated controls
Description: as §2

MATIN [10] = test: Herbicidal post-emergence action - Part I; assay type: in vivo, Matricaria inodora; details: one-leaf stage, rated visually after about 3 weeks vs untreated controls
Description: as §2

STEME [11] = test: Herbicidal pre-emergence action - Part I; assay type: in vivo, Stellaria media; details: 1280 g/ha, visual grading after ca. 3 weeks vs untreated controls
From the text: as §3, §4

Compound | post-emergence activity against AMARE (AMARE [1]; 5 g/ha, Table E2a) [%] | post-emergence activity against AMARE (AMARE [1]; 20 g/ha, Table E2b) [%] | post-emergence activity against SETVI (SETVI; 20 g/ha, Table E7b) [%] | post-emergence activity against VIOTR (VIOTR; 5 g/ha, Table E9a) [%] | post-emergence activity against VIOTR (VIOTR; 20 g/ha, Table E9b) [%] | post-emergence activity against ZEAMX (ZEAMX) [%] | post-emergence activity against MATIN (MATIN [2]) [%] | post-emergence activity against ABUTH (ABUTH [3]; 5 g/ha, Table E1a) [%] | post-emergence activity against ABUTH (ABUTH [3]; 20 g/ha, Table E1b) [%] | post-emergence activity against TRZAS (TRZAS; 5 g/ha, Table F2a) [%] | post-emergence activity against TRZAS (TRZAS; 20 g/ha, Table F2b) [%] | post-emergence activity against PHBPU (PHBPU; 20 g/ha, Table E5b) [%] | post-emergence activity against POLCO (POLCO) [%] | post-emergence activity against VERPE (VERPE [4]; 5 g/ha, Table E8a) [%] | post-emergence activity against VERPE (VERPE [4]; 20 g/ha, Table E8b) [%] | other results
Cn1c(C(F)(F)F)cc(=O)n(-c2cc(C3=NOC4(CCN(Cc5c(F)cccc5F)C4=O)C3)c(Cl)cc2F)c1=O (racemic) [Compound I-29] | 100 | 100 | 80 | 100 | 100 | 20 | 100 | 100 | 100 | 20 | 20 | 100 | 100 | 100 | 100 | post-emergence activity against SETVI (SETVI; 5 g/ha, Table E7a): 80%; post-emergence activity against GLXMA (GLXMA; 5 g/ha, Table F4a): 10%; post-emergence activity against GLXMA (GLXMA; 20 g/ha, Table F4b): 20%
COc1ncccc1C1=NOC2(CCN(Cc3cccc(F)c3F)C2=O)C1 (racemic) [Compound I-42] | – | – | – | – | – | – | – | – | – | – | – | – | – | – | – | post-emergence activity at 1280g/ha against KCHSC in % (KCHSC): 90%; post-emergence activity at 1280g/ha against VERPE in % (VERPE [5]): 90%; pre-emergence activity at 1280g/ha against AMARE in % (AMARE [6]): 90%; post-emergence activity at 320g/ha against AMARE in % (AMARE [7]; 320 g/ha): 90%; post-emergence activity at 1280g/ha against AMARE in % (AMARE [7]; 1280 g/ha): 90%; post-emergence activity at 320g/ha against ABUTH in % (ABUTH [8]): 90%; pre-emergence activity at 1280g/ha against ECHCG in % (ECHCG): 90%; post-emergence activity at 320g/ha against STEME in % (STEME [9]; 320 g/ha): 100%; post-emergence activity at 1280g/ha against STEME in % (STEME [9]; 1280 g/ha): 100%; post-emergence activity at 320g/ha against MATIN in % (MATIN [10]; 320 g/ha): 100%; post-emergence activity at 1280g/ha against MATIN in % (MATIN [10]; 1280 g/ha): 100%; pre-emergence activity at 1280g/ha against STEME in % (STEME [11]): 90%
CN1CCCC2(CC(c3cc(-n4c(=O)cc(C(F)(F)F)n(C)c4=O)c(F)cc3Cl)=NO2)C1=O (racemic) [Compound I-56] | 100 | 100 | 90 | 100 | 100 | – | 100 | 100 | 100 | 20 | 20 | 100 | 100 | 80 | 100 | post-emergence activity against PHBPU (PHBPU; 5 g/ha, Table E5a): 90%
Cn1c(C(F)(F)F)cc(=O)n(-c2cc(C3=NOC4(CCNC4=O)C3)c(Cl)cc2F)c1=O (racemic) [Compound I-71] | – | 100 | – | 80 | 80 | 20 | 80 | 80 | 100 | 0 | – | 80 | 80 | – | 80 | –

Source: patent EP4509511A1, “SUBSTITUTED SPIRO-ISOXAZOLINYL LACTAMS, SALTS THEREOF AND THEIR USE AS HERBICIDALLY ACTIVE SUBSTANCES” (Bayer Aktiengesellschaft, priority 2023, dated 2025)
